For orientation: IC50 means the concentration that inhibits the measured activity by half.

Among the data in US20090311217A1, “3-SUBSTITUTED-1H-INDOLE COMPOUNDS, THEIR USE AS MTOR KINASE AND PI3 KINASE INHIBITORS, AND THEIR SYNTHESES” (priority 2008, published 2009) are IC50 values, retold here.

Assay type in all cases: biochemical
One assay concerns the target PI3K-alpha (Homo sapiens, UniProt P42336). Briefly: PI3K-alpha fluorescence polarization assay. A general note: In fluorescence polarisation assays a small probe gives low polarisation when free and higher when bound to something large.
Another assay addresses PI3K-beta (Homo sapiens, UniProt P42338). Briefly: PI3K-beta fluorescence polarization assay. To be noted: read-out: PI3Kβ Avg. IC50. The procedure, abridged:
(§1)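 Each isoform (5 ng) phosphorylated 2.5 μM diC8-PI(4,5)P2 at 25 μM ATP for one hour at 25° C in the presence of inhibitor. Reactions were then stopped with EDTA, and product was detected by fluorescence polarization using a GST-GRP1 PH domain and a BODIPY-TMR-labelled IP4 tracer.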

Another assay concerns the target PI3K-gamma (Homo sapiens, UniProt P48736). Briefly: PI3K-gamma fluorescence polarization assay. To be noted: PI3Kγ Avg. IC50. A digest of the protocol:
as §1

For a further assay, the target named is PI3K-delta (Homo sapiens, UniProt O00329). Briefly: PI3K-delta fluorescence polarization assay.
The next assay concerns the target T1, human TOR (Homo sapiens, UniProt P42345).
T1 construct: FLAG
Briefly: mTOR enzyme assay (DELFIA, His6-S6K substrate).

The mark [1] stands for this setting: read-out: mTOR Kinase Avg. IC50.

Read-outs that look alike come from different tables or passages of the source. Bounds are passed on as bounds.

PI3K-gamma, sequence (P48736 whole entry, species assumed): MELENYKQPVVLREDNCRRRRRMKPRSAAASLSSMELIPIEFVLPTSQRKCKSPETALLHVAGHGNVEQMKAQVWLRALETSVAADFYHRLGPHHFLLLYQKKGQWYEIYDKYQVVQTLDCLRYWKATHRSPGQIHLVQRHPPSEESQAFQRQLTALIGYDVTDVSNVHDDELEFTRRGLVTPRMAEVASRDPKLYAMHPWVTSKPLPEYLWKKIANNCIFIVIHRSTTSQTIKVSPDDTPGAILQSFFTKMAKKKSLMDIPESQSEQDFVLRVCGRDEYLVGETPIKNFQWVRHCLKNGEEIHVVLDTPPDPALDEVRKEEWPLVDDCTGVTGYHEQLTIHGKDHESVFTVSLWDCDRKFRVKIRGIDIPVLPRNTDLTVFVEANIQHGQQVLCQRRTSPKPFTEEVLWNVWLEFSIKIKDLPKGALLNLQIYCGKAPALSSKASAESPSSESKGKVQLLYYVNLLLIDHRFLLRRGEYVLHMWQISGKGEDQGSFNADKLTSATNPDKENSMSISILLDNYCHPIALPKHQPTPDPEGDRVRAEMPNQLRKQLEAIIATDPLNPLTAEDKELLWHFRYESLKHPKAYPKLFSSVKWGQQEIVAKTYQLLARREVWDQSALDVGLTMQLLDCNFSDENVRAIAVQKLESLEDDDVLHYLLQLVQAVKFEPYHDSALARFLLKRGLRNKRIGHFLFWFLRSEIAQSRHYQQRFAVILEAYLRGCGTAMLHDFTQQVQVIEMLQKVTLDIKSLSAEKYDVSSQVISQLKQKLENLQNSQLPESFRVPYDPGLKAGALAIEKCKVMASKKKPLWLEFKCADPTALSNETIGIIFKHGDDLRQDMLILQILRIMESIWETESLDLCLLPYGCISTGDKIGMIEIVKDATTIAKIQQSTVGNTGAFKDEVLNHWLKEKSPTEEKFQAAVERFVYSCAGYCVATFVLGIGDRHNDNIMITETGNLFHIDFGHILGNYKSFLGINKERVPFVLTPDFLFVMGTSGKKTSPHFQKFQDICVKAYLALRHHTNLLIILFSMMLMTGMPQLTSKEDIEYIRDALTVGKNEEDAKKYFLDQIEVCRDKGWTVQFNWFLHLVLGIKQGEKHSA
PI3K-alpha, sequence (P42336 whole entry, species assumed): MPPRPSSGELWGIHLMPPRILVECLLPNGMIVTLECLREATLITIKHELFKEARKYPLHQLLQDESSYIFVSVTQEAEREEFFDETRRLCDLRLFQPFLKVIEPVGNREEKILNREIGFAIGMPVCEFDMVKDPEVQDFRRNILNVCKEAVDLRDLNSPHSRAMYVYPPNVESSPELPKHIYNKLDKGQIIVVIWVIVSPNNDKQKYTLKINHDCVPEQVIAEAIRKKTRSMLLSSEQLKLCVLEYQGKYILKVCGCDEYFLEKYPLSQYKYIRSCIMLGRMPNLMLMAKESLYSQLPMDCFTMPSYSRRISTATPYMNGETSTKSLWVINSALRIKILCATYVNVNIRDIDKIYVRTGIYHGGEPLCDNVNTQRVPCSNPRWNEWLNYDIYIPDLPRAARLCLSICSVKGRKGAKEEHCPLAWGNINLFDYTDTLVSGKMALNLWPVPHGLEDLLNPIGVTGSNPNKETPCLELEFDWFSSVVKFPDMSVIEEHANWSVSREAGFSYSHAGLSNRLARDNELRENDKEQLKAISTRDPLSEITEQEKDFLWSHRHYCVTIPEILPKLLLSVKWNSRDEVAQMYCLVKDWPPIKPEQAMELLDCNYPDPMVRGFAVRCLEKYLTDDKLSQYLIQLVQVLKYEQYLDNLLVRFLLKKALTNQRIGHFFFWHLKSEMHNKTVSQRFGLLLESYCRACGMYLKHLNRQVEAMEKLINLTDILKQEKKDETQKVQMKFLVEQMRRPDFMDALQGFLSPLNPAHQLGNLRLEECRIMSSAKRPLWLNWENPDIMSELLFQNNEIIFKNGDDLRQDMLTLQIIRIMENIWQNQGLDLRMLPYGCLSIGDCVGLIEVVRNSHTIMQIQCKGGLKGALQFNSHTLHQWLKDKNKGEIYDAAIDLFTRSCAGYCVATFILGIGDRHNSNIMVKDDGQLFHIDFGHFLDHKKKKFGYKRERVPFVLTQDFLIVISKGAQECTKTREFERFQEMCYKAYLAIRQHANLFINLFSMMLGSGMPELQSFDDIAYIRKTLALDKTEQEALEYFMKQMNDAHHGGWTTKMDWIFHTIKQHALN
PI3K-alpha, sequence (P27986 whole entry partner, species assumed): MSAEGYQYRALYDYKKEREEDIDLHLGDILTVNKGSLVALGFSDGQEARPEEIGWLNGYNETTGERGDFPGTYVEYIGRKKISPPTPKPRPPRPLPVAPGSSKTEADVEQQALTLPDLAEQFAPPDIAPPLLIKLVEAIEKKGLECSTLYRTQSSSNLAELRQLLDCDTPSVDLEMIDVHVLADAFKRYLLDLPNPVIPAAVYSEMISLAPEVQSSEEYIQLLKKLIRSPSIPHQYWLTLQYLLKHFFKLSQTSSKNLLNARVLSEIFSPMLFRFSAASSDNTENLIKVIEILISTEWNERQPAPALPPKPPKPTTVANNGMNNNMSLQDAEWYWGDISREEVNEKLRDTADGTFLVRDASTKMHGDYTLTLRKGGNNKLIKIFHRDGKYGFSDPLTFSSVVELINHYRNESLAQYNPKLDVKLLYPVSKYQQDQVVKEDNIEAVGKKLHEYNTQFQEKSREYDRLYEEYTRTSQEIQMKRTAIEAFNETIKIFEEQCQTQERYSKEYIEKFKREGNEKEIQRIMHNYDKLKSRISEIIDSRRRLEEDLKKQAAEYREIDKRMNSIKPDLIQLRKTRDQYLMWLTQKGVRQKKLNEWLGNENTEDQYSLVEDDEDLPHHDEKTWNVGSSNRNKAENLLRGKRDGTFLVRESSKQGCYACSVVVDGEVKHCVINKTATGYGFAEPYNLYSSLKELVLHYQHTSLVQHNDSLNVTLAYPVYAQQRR
PI3K-delta, sequence (O00329 whole entry, species assumed): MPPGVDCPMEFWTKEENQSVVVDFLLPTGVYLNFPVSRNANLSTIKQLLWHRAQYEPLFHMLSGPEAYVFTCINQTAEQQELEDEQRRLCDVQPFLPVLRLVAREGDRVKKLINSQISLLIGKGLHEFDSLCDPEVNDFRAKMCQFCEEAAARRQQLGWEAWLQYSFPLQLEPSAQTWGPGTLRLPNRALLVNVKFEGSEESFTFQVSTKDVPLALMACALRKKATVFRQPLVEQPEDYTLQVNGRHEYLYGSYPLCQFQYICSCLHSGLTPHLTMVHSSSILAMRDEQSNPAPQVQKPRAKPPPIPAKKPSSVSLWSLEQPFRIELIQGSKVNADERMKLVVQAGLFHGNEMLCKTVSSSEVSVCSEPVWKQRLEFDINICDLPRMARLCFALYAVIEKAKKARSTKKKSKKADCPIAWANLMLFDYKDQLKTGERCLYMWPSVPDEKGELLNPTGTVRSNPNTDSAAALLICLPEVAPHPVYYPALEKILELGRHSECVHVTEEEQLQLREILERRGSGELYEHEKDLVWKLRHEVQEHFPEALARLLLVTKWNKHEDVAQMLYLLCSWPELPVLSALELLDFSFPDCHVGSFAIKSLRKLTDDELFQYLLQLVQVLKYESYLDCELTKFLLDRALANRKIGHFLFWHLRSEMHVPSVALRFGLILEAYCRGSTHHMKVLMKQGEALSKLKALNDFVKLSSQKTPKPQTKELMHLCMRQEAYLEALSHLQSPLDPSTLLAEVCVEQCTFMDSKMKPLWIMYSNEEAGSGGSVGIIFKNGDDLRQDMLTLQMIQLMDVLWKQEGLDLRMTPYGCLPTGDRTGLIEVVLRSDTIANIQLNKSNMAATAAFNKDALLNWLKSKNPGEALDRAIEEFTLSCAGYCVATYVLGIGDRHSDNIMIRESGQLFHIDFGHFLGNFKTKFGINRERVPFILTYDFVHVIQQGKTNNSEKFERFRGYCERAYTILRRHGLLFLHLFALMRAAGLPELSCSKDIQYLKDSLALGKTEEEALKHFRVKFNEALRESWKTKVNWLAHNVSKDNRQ
PI3K-delta, sequence (P27986 whole entry partner, species assumed): as the sequence (P27986 whole entry partner, species assumed) above
PI3K-beta, sequence (P42338 whole entry, species assumed, the tested form may be a part, canonical isoform): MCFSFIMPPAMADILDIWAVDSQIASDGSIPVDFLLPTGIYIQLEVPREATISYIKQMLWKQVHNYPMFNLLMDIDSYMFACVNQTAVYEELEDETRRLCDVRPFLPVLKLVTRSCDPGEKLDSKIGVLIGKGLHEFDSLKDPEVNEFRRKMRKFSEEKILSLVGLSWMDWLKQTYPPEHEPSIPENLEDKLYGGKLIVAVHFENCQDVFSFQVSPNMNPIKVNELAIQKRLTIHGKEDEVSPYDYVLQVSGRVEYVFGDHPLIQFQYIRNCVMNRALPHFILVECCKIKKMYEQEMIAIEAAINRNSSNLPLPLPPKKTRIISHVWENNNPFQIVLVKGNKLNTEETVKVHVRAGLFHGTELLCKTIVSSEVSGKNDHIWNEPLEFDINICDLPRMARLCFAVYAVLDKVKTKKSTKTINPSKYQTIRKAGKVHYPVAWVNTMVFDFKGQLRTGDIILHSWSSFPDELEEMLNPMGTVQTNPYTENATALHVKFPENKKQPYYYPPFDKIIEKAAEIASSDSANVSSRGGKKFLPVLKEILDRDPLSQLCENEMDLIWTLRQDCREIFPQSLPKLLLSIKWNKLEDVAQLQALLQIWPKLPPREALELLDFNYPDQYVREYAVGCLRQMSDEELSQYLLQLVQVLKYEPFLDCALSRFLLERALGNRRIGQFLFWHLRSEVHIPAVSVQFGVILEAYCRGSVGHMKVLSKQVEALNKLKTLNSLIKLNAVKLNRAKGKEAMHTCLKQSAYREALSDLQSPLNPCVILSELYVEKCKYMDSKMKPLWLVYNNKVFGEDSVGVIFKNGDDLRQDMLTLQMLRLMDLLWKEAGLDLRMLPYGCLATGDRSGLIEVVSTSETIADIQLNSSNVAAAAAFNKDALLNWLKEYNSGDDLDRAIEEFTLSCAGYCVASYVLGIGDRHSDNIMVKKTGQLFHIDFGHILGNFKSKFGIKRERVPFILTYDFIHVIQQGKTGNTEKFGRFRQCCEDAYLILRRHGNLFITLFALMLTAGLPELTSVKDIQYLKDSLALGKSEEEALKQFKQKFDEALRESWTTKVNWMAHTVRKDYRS
PI3K-beta, sequence (P27986 whole entry partner, species assumed, the tested form may be a part, canonical isoform): as the sequence (P27986 whole entry partner, species assumed) above

Consider `COc1ccc2c(c1)c(C=C1Oc3cc(O)cc(O)c3C1=O)cn2CCN1CCN(CCO)CC1` [Example 111, 4,6-dihydroxy-2-[(1-{2-[4-(2-hydroxyethyl)piperazin-1-yl]ethyl}-5-methoxy-1H-indol-3-yl)methylene]-1-benzofuran-3(2H)-one], for which the IC50 stood at 36.3 nM at PI3K-alpha (read-out: PI3Kα Avg. IC50); 169 nM at PI3K-beta; 976 nM on PI3K-gamma; 21.5 nM at PI3K-delta (read-out: PI3Kδ Avg. IC50); 215 nM at human TOR (setting [1]).
On to `COc1ccc2c(c1)c(C=C1Oc3cc(O)cc(O)c3C1=O)cn2CCCN1CCOCC1` [Example 112, 4,6-dihydroxy-2-{[5-methoxy-1-(3-morpholin-4-ylpropyl)-1H-indol-3-yl]methylene}-1-benzofuran-3(2H)-one], for which the IC50 came to 42 nM against PI3K-alpha (PI3Kα Avg. IC50); 181 nM on PI3K-beta; 646 nM against PI3K-gamma; 6 nM at PI3K-delta (read-out: PI3Kδ Avg. IC50); 430 nM on human TOR (mTOR Kinase Avg. IC50).
For `COc1ccc2c(c1)c(C=C1Oc3cc(O)cc(O)c3C1=O)cn2CCCN1CCN(CCO)CC1` [Example 113, 4,6-dihydroxy-2-[(1-{3-[4-(2-hydroxyethyl)piperazin-1-yl]propyl}-5-methoxy-1H-indol-3-yl)methylene]-1-benzofuran-3(2H)-one], the IC50 amounted to 37 nM at PI3K-alpha (PI3Kα Avg. IC50); 243 nM at PI3K-beta; 1360 nM on PI3K-gamma; 7 nM on PI3K-delta (read-out: PI3Kδ Avg. IC50); 1650 nM on human TOR (setting [1]).
Regarding `COc1ccc2c(c1)c(C=C1Oc3cc(O)cc(O)c3C1=O)cn2CCCN(C)C` [Example 114, 2-({1-[3-(dimethylamino)propyl]-5-methoxy-1H-indol-3-yl}methylene)-4,6-dihydroxy-1-benzofuran-3(2H)-one], the IC50 on PI3K-alpha (PI3Kα Avg. IC50) amounted to 40 nM; at PI3K-beta, 221 nM; against PI3K-gamma, 2420 nM; at PI3K-delta (read-out: PI3Kδ Avg. IC50) it was 11.5 nM; on human TOR (setting [1]) it was 2120 nM.
On to `COc1ccc2c(c1)c(C=C1Oc3cc(O)cc(O)c3C1=O)cn2CCCCN1CCOCC1` [Example 115, 4,6-dihydroxy-2-{[5-methoxy-1-(4-morpholin-4-ylbutyl)-1H-indol-3-yl]methylene}-1-benzofuran-3(2H)-one], for which the IC50 on PI3K-alpha (read-out: PI3Kα Avg. IC50) worked out at 39.3 nM; on PI3K-beta it was 136 nM; against PI3K-gamma it was 1190 nM; on PI3K-delta (read-out: PI3Kδ Avg. IC50) it was 8.5 nM; at human TOR (setting [1]), 980 nM.
In the same order, the values of `COc1ccc2c(c1)c(C=C1Oc3cc(O)cc(O)c3C1=O)cn2CCCCN(C)C` [Example 116, 2-({1-[4-(dimethylamino)butyl]-5-methoxy-1H-indol-3-yl}methylene)-4,6-dihydroxy-1-benzofuran-3(2H)-one] are 37 nM, 119 nM, 1340 nM, 5 nM and 1420 nM.
For the compound `COC(=O)c1ccc2[nH]cc(C=C3Oc4cc(O)cc(O)c4C3=O)c2c1` [Example 166, methyl 3-[(4,6-dihydroxy-3-oxo-1-benzofuran-2(3H)-ylidene)methyl]-1H-indole-5-carboxylate], the IC50 stood at 28 nM at PI3K-alpha (read-out: PI3Kα Avg. IC50); 46 nM on PI3K-beta; 180 nM at PI3K-gamma; 59 nM on PI3K-delta (read-out: PI3Kδ Avg. IC50); 1700 nM at human TOR (setting [1]).
For `COc1cc2c(C=C3Oc4cc(O)cc(O)c4C3=O)c(C)[nH]c2cc1C` [Example 184, 4,6-dihydroxy-2-[(5-methoxy-2,6-dimethyl-1H-indol-3-yl)methylene]-1-benzofuran-3(2H)-one] the same measures were 102 nM, 155 nM, 544 nM, 193 nM and 190 nM.
In the same order, the values of `COc1cc2c(C=C3Oc4cc(O)cc(O)c4C3=O)c(C)n(C)c2cc1C` [Example 185, 4,6-dihydroxy-2-[(5-methoxy-1,2,6-trimethyl-1H-indol-3-yl)methylene]-1-benzofuran-3(2H)-one] are 32.3 nM, 96.5 nM, 403 nM, 38 nM and 130 nM.
For `COc1ccc2c(c1)c(/C=C1\Oc3cc(O)cc(O)c3C1=O)c(C1CC1)n2CCN1CCN(C)CC1` [Example 302, (2Z)-2-({2-Cyclopropyl-5-methoxy-1-[2-(4-methylpiperazin-1-yl)ethyl]-1H-indol-3-yl}methylene)-4,6-dihydroxy-1-benzofuran-3(2H)-one] the same measures were 17 nM, 14 nM, 764 nM, less than 2.5 nM and 300 nM.
In the case of `COc1ccc2c(c1)c(/C=C1\Oc3cc(O)ccc3C1=O)c(C)n2CCN1CCN(C)CC1` [Example 303, (2Z)-6-Hydroxy-2-({5-methoxy-2-methyl-1-[2-(4-methylpiperazin-1-yl)ethyl]-1H-indol-3-yl}methylene)-1-benzofuran-3(2H)-one], the IC50 on PI3K-alpha (read-out: PI3Kα Avg. IC50) was 2.2 nM; at PI3K-beta, 3.5 nM; against PI3K-gamma, 70 nM; on PI3K-delta (read-out: PI3Kδ Avg. IC50), less than 2 nM; at human TOR (setting [1]) it was 1.93 nM.
For the compound `COc1ccc2[nH]c(-c3ccccc3)c(/C=C3\Oc4cccc(O)c4C3=O)c2c1` [Example 304, (2Z)-4-Hydroxy-2-[(5-methoxy-2-phenyl-1H-indol-3-yl)methylene]-1-benzofuran-3(2H)-one], the IC50 on PI3K-alpha (read-out: PI3Kα Avg. IC50) worked out at 54 nM; on PI3K-beta, 128 nM; on PI3K-gamma, 65 nM; on PI3K-delta (read-out: PI3Kδ Avg. IC50), 17 nM; at human TOR (setting [1]), 62 nM.
For the compound `COc1ccc2c(c1)c(/C=C1\Oc3cc(O)cc(O)c3C1=O)c(C)n2CCCN(C)C` [Example 305, (2Z)-2-({1-[3-(Dimethylamino)propyl]-5-methoxy-2-methyl-1H-indol-3-yl}methylene)-4,6-dihydroxy-1-benzofuran-3(2H)-one], the IC50 against PI3K-alpha (PI3Kα Avg. IC50) came to 5 nM; on PI3K-beta it was 28.5 nM; on PI3K-gamma, 228 nM; on PI3K-delta, 5 nM; on human TOR (setting [1]) it was 205 nM.
Regarding `COc1ccc2c(c1)c(/C=C1\Oc3cc(O)cc(O)c3C1=O)c(C(=O)N(C)C)n2CCN1CCC(O)C1` (stereo not shown) [Example 306, 3-[(Z)-(4,6-Dihydroxy-3-oxo-1-benzofuran-2(3H)-ylidene)methyl]-1-[2-(3-hydroxypyrrolidin-1-yl)ethyl]-5-methoxy-N,N-dimethyl-1H-indole-2-carboxamide], the IC50 at PI3K-alpha (read-out: PI3Kα Avg. IC50) came to 8.5 nM; on PI3K-beta, 20.5 nM; against PI3K-gamma it was 144 nM; on PI3K-delta (read-out: PI3Kδ Avg. IC50) it was 3 nM; at human TOR (setting [1]) it was 130 nM.
For `COc1ccc2c(c1)c(/C=C1\Oc3cc(O)ccc3C1=O)c(C)n2CCCN(C)C` [Example 307, (2Z)-2-({1-[3-(Dimethylamino)propyl]-5-methoxy-2-methyl-1H-indol-3-yl}methylene)-6-hydroxy-1-benzofuran-3(2H)-one] the same measures were 18.5 nM, 72.5 nM, 1820 nM, 2.5 nM and 3700 nM.
For `COc1ccc2c(c1)c(/C=C1\Oc3cc(O)cc(O)c3C1=O)cn2CCN1CCN(C)CC1` [Example 308, (2Z)-4,6-Dihydroxy-2-({5-methoxy-1-[2-(4-methylpiperazin-1-yl)ethyl]-1H-indol-3-yl}methylene)-1-benzofuran-3(2H)-one] the same measures were 25.5 nM, 23.5 nM, 1030 nM, 5.5 nM and 270 nM.
Regarding `COc1ccc2[nH]c(-c3ccccc3)c(/C=C3\Oc4cc(O)ccc4C3=O)c2c1` [Example 310, (2Z)-6-Hydroxy-2-[(5-methoxy-2-phenyl-1H-indol-3-yl)methylene]-1-benzofuran-3(2H)-one], the 50% inhibitory concentration (IC50) on PI3K-alpha (read-out: PI3Kα Avg. IC50) was less than 2.1 nM; at PI3K-beta it was 11.5 nM; on PI3K-gamma, 13.5 nM; at PI3K-delta (read-out: PI3Kδ Avg. IC50), 0.9 nM; at human TOR (setting [1]) it was 92 nM.
In the same order, the values of `COc1ccc2c(c1)c(/C=C1\Oc3cc(O)cc(O)c3C1=O)c(C(=O)N(C)C)n2CCN1CCN(C)CC1` [Example 316, 3-[(Z)-(4,6-Dihydroxy-3-oxo-1-benzofuran-2(3H)-ylidene)methyl]-5-methoxy-N,N-dimethyl-1-[2-(4-methylpiperazin-1-yl)ethyl]-1H-indole-2-carboxamide] are less than 2.7 nM, 25 nM, 278 nM, 1.5 nM and 14.5 nM.
In the same order, the values of `COc1ccc2c(c1)c(/C=C1\Oc3cc(O)cc(O)c3C1=O)cn2CCO` [Example 317, (2Z)-4,6-Dihydroxy-2-{[1-(2-hydroxyethyl)-5-methoxy-1H-indol-3-yl]methylene}-1-benzofuran-3(2H)-one] are 17 nM, 64 nM, 92.5 nM, 8.5 nM and 77.5 nM.
With `COc1ccc2c(c1)c(/C=C1\Oc3cc(O)cc(O)c3C1=O)cn2CC(=O)N(C)C` [Example 318, 2-{3-[(Z)-(4,6-Dihydroxy-3-oxo-1-benzofuran-2(3H)-ylidene)methyl]-5-methoxy-1H-indol-1-yl}-N,N-dimethylacetamide], the half-inhibitory concentration (IC50) was 83.3 nM at PI3K-alpha (read-out: PI3Kα Avg. IC50); 739 nM at PI3K-beta; 686 nM on PI3K-gamma; 27 nM at PI3K-delta (read-out: PI3Kδ Avg. IC50); 250 nM on human TOR (setting [1]).
